Read-outs that look alike come from different tables or passages of the source.
Assays:
[1] = test system: mice subjected to lethal hypoxia; test: Protection of mice from lethal hypoxia using 5′-AMP; type: in vivo, mouse (C57BI/6); settings: for survival of exposure to hypoxia: 4% oxygen for 60 min; for time to full recovery from lowest temperature: after return to ambient air
Procedure: The ability of 5′-AMP to protect mice from lethal hypoxia was determined by comparing the effects of hypoxia on mice treated with 5′-AMP to the effects of hypoxia on untreated mice. Male C57BI/6 mice, 5-6 weeks old, with implanted jugular vein catheter (Taconic) were implanted dorsally with a subcutaneous RFID temperature sensor (IPTT-300, Bio Medic Data Systems, Inc.) and allowed to recover for at least 24 hours. Adenosine-5′-monophosphate (AMP sodium salt, Sigma) was dissolved in water, the osmolarity was adjusted with sodium chloride to 300 mOsm, the pH was adjusted with NaOH to 6.3, and the solution was filtered through a 0.2 um filter. The final AMP concentration was 40 mM. Mice were placed into a tall glass-bottom jar with opaque walls and infused via the jugular vein at a rate of 0.8 ul/min for 59.5 min followed by 1.6 ul/min for 12.8 min (total AMP dose=145 umol/kg) with a syringe pump (Harvard Apparatus), until their subcutaneous temperature had decreased to about 33° C. The infusion was stopped, and the mice were exposed for 60 min to an atmosphere of 4% oxygen constructed by mixing air and nitrogen using mass flow controllers (Sierra Instruments). During the infusion and exposure to hypoxia, the animals' subcutaneous temperature was read every 3-5 min and their vital signs were monitored. At the end if the hypoxic period, the animals were removed to ambient air. Temperature measurements were continued until the animals' temperature had returned to the normal range (FIGS. 1A and 1B). A control mouse was exposed to hypoxia, and its time of death was recorded.
The same procedure described above was repeated under conditions wherein the mouse treated with 5′AMP received a constant infusion of 40 mM AMP at 1.6 ul/min for 26.5 min (total AMP dose of 69 umol/kg) until its subcutaneous temperature had reached 33 C. In this case, the AMP-infused mouse (MJVC83) survived exposure to hypoxia for 60 min and recovered fully from the lowest temperature of 24° C. within 1 hour. The control mouse (MJVC84) died after 8.5 min of hypoxia with a final temperature of 32.7° C. (FIGS. 2A and 2B).

[2] = test system: rats subjected to lethal hypoxia; test: Protection of rats from lethal hypoxia using 5′-AMP; type: in vivo, rat (Sprague Dawley); settings: rat RJVC35; 40 mM 5′AMP bolus 258 ul then 31.7 ul/min for 66.4 min, total 270 uM/kg; saline control 8.6 min
[3] = treatment of animals; Zhang et al., Nature 2006; cited from earlier work
[4] = test system: mice subjected to lethal hypoxia; test: Protection of mice from lethal hypoxia using adenosine; type: in vivo, mouse (C57BI/6); settings: two mice
Procedure: The ability of adenosine to protect mice from lethal hypoxia was determined by comparing the effects of hypoxia on mice treated with adenosine to the effects of hypoxia on untreated mice. Male C57BI/6 mice, 5-8 weeks old, with implanted jugular vein catheter (Taconic) were implanted dorsally with a subcutaneous RFID temperature sensor (PTT-300, Bio Medic Data Systems, Inc.) and allowed to recover for at least 24 hours after implantation. Mice were injected with adenosine (19 mM, 3.2 μl/min total dose approximately 27 mg/kg) and temperature was monitored via the temperature sensor until subcutaneous body temperature had decreased to about 33° C. The infusion was stopped, and these mice, as well as control mice injected with sodium chloride) were exposed for 60 min to an atmosphere of 4% oxygen constructed by mixing air and nitrogen using mass flow controllers (Sierra Instruments). During the infusion and exposure to hypoxia, the animals' subcutaneous temperature was monitored every 3-5 min and their vital signs were monitored. In parallel, a control mouse was injected with vehicle (sodium chloride; NaCI; 137 mM, 3.2 μl/min, total dose of NaCl administered was approximately 41 mg/kg) and put into a hypoxic atmosphere (4% O2) at the same time as the mouse injected with adenosine, and its behavior and body temperature monitored. Following 60 min in hypoxic conditions, the mice (MJVC104 and MJVC 108) treated with adenosine were transferred into room air, and recovery of the mice was recorded by observing behavior and monitoring body temperature. […] The control mice (MJVC105 and MJVC107) died after approximately six minutes in the hypoxic atmosphere (4% O2; FIGS. 4B and 5B).

[5] = cited from earlier work
[6] = adenosine approximately 27 mg/kg, after 60 min 4% O2

## Nc1ncnc2c1ncn2[C@@H]1O[C@H](COP(=O)(O)O)[C@@H](O)[C@H]1O [5′-AMP, Adenosine-5′-monophosphate]
[1]; mouse MJVC80, 40 mM AMP jugular vein infusion 0.8 ul/min 59.5 min then 1.6 ul/min 12.8 min, total 145 umol/kg
  survival of exposure to hypoxia: survived
[1]; mouse MJVC80, total AMP dose 145 umol/kg
  time to full recovery from lowest temperature: ≤ 1 h
[1]; mouse MJVC83, constant infusion 40 mM AMP 1.6 ul/min 26.5 min, total 69 umol/kg
  survival of exposure to hypoxia: survived
[1]; mouse MJVC83, total AMP dose 69 umol/kg
  time to full recovery from lowest temperature: ≤ 1 h
[2]
  time of survival in 3.5% oxygen: 38.2 min
[3]
  induction of torpor (depressed body temperature, mClps expression): induced torpor

## Nc1ncnc2c1ncn2[C@@H]1O[C@H](CO)[C@@H](O)[C@H]1O [adenosine]
[4]; adenosine 19 mM, 3.2 μl/min, total approximately 27 mg/kg, 4% O2 for 60 minutes
  survival of hypoxic atmosphere: survived
[4]; [6]
  behavioral abnormalities the following day: No behavioral abnormalities
  recovery after return to room air: recovered completely

## [C-]#[O+] [carbon monoxide]
[5]; 50 ppm
  symptoms on exposure: no symptoms
[5]; 200 ppm, within two-three hours
  symptoms on exposure: slight headache
[5]; 400 ppm, within one to two hours
  symptoms on exposure: frontal headache
[5]; 800 ppm, within 45 minutes
  symptoms on exposure: dizziness, nausea, and/or convulsions
[5]; around 1000 ppm, exposure for more than around 1-2 minutes, an organism
  lethality on exposure: expire
